# Tests used:
# Assay type in all cases: cell-based
# [1] = biological target: T1, KRAS-G12D (Homo sapiens, UniProt P01116, G12D); assay: KRAS-G12D degradation assay (Western Blot), A-427 cells; details: A427 cells, 24 h; for Dmax: A-427
# T1 construct: endogenous in cells; host or cells: A-427 (ATCC), AGS, AsPc-1, Panc 04.03
# Method in brief: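 Each KRAS G12D mutant line (A-427, AGS, AsPc-1, Panc 04.03) was seeded at 5×10^5 cells/well and treated 24 h at 37 °C with 0.03–3000 nM compound (final DMSO 0.25%). KRAS in lysates was measured by Western blot, normalized to β-actin and compared with controls, giving DC50 and Dmax from curve fits.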
# [2] = tested on: KRAS G12D mutant human gastric cancer cell AGS; assay: 3D cell proliferation inhibition assay, AGS; details: 168 h, 7 days, CTG
# Method in brief: (§1)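 Cells were seeded at 5×10^2 cells/well in low-adsorption plates with compound (10000–0.026 nM final, 0.2% DMSO) and grown for 7 days at 37 °C, 5% CO2. Viability was read by CTG luminescence after 60 min at room temperature. IC50 came from log concentration–inhibition curve fits, normalised to DMSO and medium-only controls.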
# [3] = tested on: KRAS G12D mutant human lung cancer cell A427; assay: 3D cell proliferation inhibition assay, A427; details: A-427, 168 h, A427, 7 days, CTG
# Method in brief: as §1
# T1 sequence (P01116 1-188 isoform P01116-2 G12D): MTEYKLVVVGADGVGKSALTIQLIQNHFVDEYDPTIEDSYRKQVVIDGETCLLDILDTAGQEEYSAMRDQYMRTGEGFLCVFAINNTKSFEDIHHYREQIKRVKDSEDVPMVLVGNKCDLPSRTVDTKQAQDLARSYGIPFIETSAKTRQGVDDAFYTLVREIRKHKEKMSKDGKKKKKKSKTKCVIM
Compound,DC50 ([1]; class symbols),Dmax ([1]; class symbols),IC50 ([2]; class symbols),IC50 ([3]; class symbols),DC50 ([1]; numeric values),Dmax ([1]; numeric values),IC50 ([2]; numeric values),IC50 ([3]; numeric values)
"C#Cc1c(F)ccc2cc(O)cc(-c3ncc4c(N5CC6CCC(C5)N6)nc(OCC5(CN6CCN(CCCCC7CCC8(CC7)CCN(C(=O)c7ccc(Cl)c(N9CCC(=O)NC9=O)c7)CC8)CC6)CC5)nc4c3F)c12 [Example 31, 1-(5-(9-(4-(4-((1-(((4-(3,8-diazabicyclo[3.2.1]octan-3-yl)-7-(8-ethynyl-7-fluoro-3-hydroxynaphthalen-1-yl)-8-fluoropyrido[4,3-d]pyrimidin-2-yl)oxy)methyl)cyclopropyl)methyl)piperazin-1-yl)butyl)-3-azaspiro[5.5]undecane-3-carbonyl)-2-chlorophenyl)dihydropyrimidine-2,4(1H,3H)-dione]",≤ 50 nM,80 to 100%,≤ 50 nM,≤ 50 nM,,,,
"C#Cc1c(F)ccc2cc(O)cc(-c3ncc4c(N5CC6CCC(C5)N6)nc(OC[C@@H]5CCCN5CCC5CCC6(CC5)CCN(C(=O)c5ccc(Cl)c(N7CCC(=O)NC7=O)c5)CC6)nc4c3F)c12 [Example 32, 1-(5-(9-(2-((S)-2-(((4-(3,8-diazabicyclo[3.2.1]octan-3-yl)-7-(8-ethynyl-7-fluoro-3-hydroxynaphthalen-1-yl)-8-fluoropyrido[4,3-d]pyrimidin-2-yl)oxy)methyl)pyrrolidin-1-yl)ethyl)-3-azaspiro[5.5]undecane-3-carbonyl)-2-chlorophenyl)dihydropyrimidine-2,4(1H,3H)-dione]",1000 to 10000 nM,< 30%,1000 to 10000 nM,1000 to 10000 nM,,,,
"C#Cc1c(F)ccc2cc(O)cc(-c3ncc4c(N5CC6CCC(C5)N6)nc(OCC56CC(CN7CCN(CC8CCC9(CC8)CCN(C(=O)c8ccc(Cl)c(N%10CCC(=O)NC%10=O)c8)CC9)CC7)(C5)C6)nc4c3F)c12 [Example 33, 1-(5-(9-((4-((3-(((4-(3,8-diazabicyclo[3.2.1]octan-3-yl)-7-(8-ethynyl-7-fluoro-3-hydroxynaphthalen-1-yl)-8-fluoropyrido[4,3-d]pyrimidin-2-yl)oxy)methyl)bicyclo[1.1.1]pentan-1-yl)methyl)piperazin-1-yl)methyl)-3-azaspiro[5.5]undecane-3-carbonyl)-2-chlorophenyl)dihydropyrimidine-2,4(1H,3H)-dione]",≤ 50 nM,80 to 100%,≤ 50 nM,100 to 500 nM,,,,
"C#Cc1c(F)ccc2cc(O)cc(-c3ncc4c(N5CC6CCC(C5)N6)nc(OCC5(CN6CCN(CC7CCC8(CC7)CCN(C(=O)c7ccc(C)c(N9CCC(=O)NC9=O)c7)CC8)CC6)CC5)nc4c3F)c12 [Example 36, 1-(5-(9-((4-((1-(((4-(3,8-diazabicyclo[3.2.1]octan-3-yl)-7-(8-ethynyl-7-fluoro-3-hydroxynaphthalen-1-yl)-8-fluoropyrido[4,3-d]pyrimidin-2-yl)oxy)methyl)cyclopropyl)methyl)piperazin-1-yl)methyl)-3-azaspiro[5.5]undecane-3-carbonyl)-2-methylphenyl)dihydropyrimidine-2,4(1H,3H)-dione]",≤ 50 nM,80 to 100%,≤ 50 nM,≤ 50 nM,,,,
"C#Cc1c(F)ccc2cc(O)cc(-c3ccc4c(N5CC6CCC(C5)N6)nc(OCC5(CN6CCN(CC7CCC8(CC7)CCN(C(=O)c7ccc(C)c(N9CCC(=O)NC9=O)c7)CC8)CC6)CC5)nc4c3F)c12 [Example 42, 1-(5-(9-((4-((1-(((4-(3,8-diazabicyclo[3.2.1]octan-3-yl)-7-(8-ethynyl-7-fluoro-3-hydroxynaphthalen-1-yl)-8-fluoroquinazolin-2-yl)oxy)methyl)cyclopropyl)methyl)piperazin-1-yl)methyl)-3-azaspiro[5.5]undecane-3-carbonyl)-2-methylphenyl)dihydropyrimidine-2,4(1H,3H)-dione]",≤ 50 nM,80 to 100%,≤ 50 nM,≤ 50 nM,,,,
"C#Cc1cccc2cc(O)cc(-c3ncc4c(N5CC6CCC(C5)N6)nc(OCC5(CN6CCN(CC7CCC8(CC7)CCN(C(=O)c7ccc(Cl)c(N9CCC(=O)NC9=O)c7)CC8)CC6)CC5)nc4c3F)c12 [Example 57, 1-(5-(9-((4-((1-(((4-(3,8-diazabicyclo[3.2.1]octan-3-yl)-7-(8-ethynyl-3-hydroxynaphthalen-1-yl)-8-fluoropyrido[4,3-d]pyrimidin-2-yl)oxy)methyl)cyclopropyl)methyl)piperazin-1-yl)methyl)-3-azaspiro [5.5]undecane-3-carbonyl)-2-chlorophenyl)dihydropyrimidine-2,4(1H,3H)-dione]",≤ 50 nM,80 to 100%,≤ 50 nM,≤ 50 nM,,,,
"C#Cc1c(F)ccc2cc(O)cc(-c3ncc4c(N5CC6CCC(C5)N6)nc(OCC(C)CN5CCN(CC6CCC7(CC6)CCN(C(=O)c6ccc(OC)c(N8CCC(=O)NC8=O)c6)CC7)CC5)nc4c3F)c12 (stereo not shown) [Example 84, 1-(5-(9-((4-(3-((4-(3,8-diazabicyclo[3.2.1]octan-3-yl)-7-(8-ethynyl-7-fluoro-3-hydroxynaphthalen-1-yl)-8-fluoropyrido[4,3-d]pyrimidin-2-yl)oxy)-2-methylpropyl)piperazin-1-yl)methyl)-3-azaspiro[5.5]undecane-3-carbonyl)-2-methoxyphenyl)dihydropyrimidine-2,4(1H,3H)-dione]",,,,,4.67 nM,86.3%,1.05 nM,6.5 nM
